In this test the target is HIV-1 integrase / human LEDGF/p75 complex. Put plainly: inhibitors of HIV-1 IN-LEDGF/p75 DNA integration, dose response, biochemical, TR-FRET (AID 1053172). For orientation: In TR-FRET formats the signal depends on donor and acceptor labels being close together.

Activity calls are given as the source filed them. No rule for the calls is given here.

With `C=C(C)C(=O)Nc1cccc(C2=NOC3(C2)C[C@@H](C(N)=O)N(C(=O)/C=C/C=C/C)C3)c1` (some centres undefined), the IC50 is 3.25 µM.
Turning to `NC1=NC(=O)/C(=C\c2ccco2)S1`, the IC50 was 3.99 µM.
For `O=C(Cc1csc(N2CCOCC2)n1)N/N=C/c1ccc(O)c(O)c1O`, the IC50 is 0.927 µM.
The figure for `O=C1S/C(=C\C=C\c2ccco2)C(=O)N1c1ccc(O)cc1` is 9.56 µM; for `O=C(CCCN1C(=O)/C(=C/c2ccco2)SC1=S)Nc1ccccc1C(=O)O` it is 8.37 µM; for `NC(=S)NN=Cc1nccc2c(N)cccc12` it is > 36.5 µM (inactive).
In the case of `O=C(N/N=C/c1ccc(F)cc1)c1cc(-c2ccco2)nc2ccccc12`, the IC50 is 8.59 µM.
Then `COC1=CC(=O)C(C2CC(=O)c3c(O)cc(O)cc3O2)=CC1=O` (centres undefined), with > 36.5 µM (inactive); and `O=C(N/N=C/c1cccnc1)c1cc(O)c(O)c(O)c1`, with “inactive”; and `O=C(Cn1cnc([N+](=O)[O-])n1)c1ccc(O)c(O)c1`, with “inactive”.
With `O=[N+]([O-])c1cc(Br)c(O)c(C=Nc2ccc(N3CCOCC3)cc2)c1`, the IC50 result was “inactive”.
`COc1ccc(C(=O)CSc2nnc(-c3ccco3)c(-c3ccco3)n2)cc1`: the IC50 was 6.45 µM.
Then `O=C1c2ccccc2C(=O)N1/N=C/c1ccc(O)c(O)c1`, with 3 µM.
Consider `Cc1csc(NC(=O)CSc2sc3c(O)cc(=O)[nH]c3c2C#N)n1`, for which the IC50 was 9.73 µM.
On to `CC(C(=O)O)N1C(=O)/C(=C/C=C/c2ccco2)SC1=S` (centres undefined), for which the IC50 was 0.452 µM.
As for `C=CCn1c(SCC(=O)c2ccc(O)c(O)c2)nnc1-c1cccnc1`, the IC50 is 2.39 µM.
For the compound `COP(=O)(OC)c1ccc(NCc2cc(O)ccc2O)cc1`, the IC50 entry was “inactive”.
In the case of `C=CC(=O)N1C/C(=C/c2ccc(F)cc2)C(=O)/C(=C\c2ccc(F)cc2)C1`, the IC50 result was “inactive”.
As for `COc1ccc2[nH]c3c(C)c4cc[n+](C)cc4c(C)c3c2c1`, the concentration for half-maximal inhibition (IC50) was 5.11 µM.
`N#C/C(=C\c1ccc(O)c(O)c1)C(=O)Nc1cccc2ncccc12`: the IC50 is 1.07 µM.
`O=C(O)c1ccc(-n2cccc2/C=C2/SC(=O)N(CC(=O)N3CCCC3)C2=O)cc1`: the IC50 is 2.46 µM.
Take `O=C1/C(=C\c2ccc(O)c(O)c2)C(c2ccccc2)=NN1c1ccccc1`: the IC50 result was “inactive”.
Turning to `O=C(NCc1ccco1)c1cc2ccc(O)cc2oc1=O`, the IC50 result was “inactive”.
As to `CCOC(=O)c1cc2c(=Cc3ccc(N(C)C)cc3)c3ccccc3n2[n+]1C`, the IC50 result was “inactive”.
Then `NC1=CC(=O)C(=O)c2cccnc21`, with 2.14 µM.
Regarding `COCCCNC(=O)/C(C#N)=C/c1ccc(OCC(=O)O)c(OC)c1`, the IC50 was 5.28 µM.
Turning to `C[n+]1c2cc(N)ccc2cc2ccc(N)cc21`, the half-maximal inhibitory concentration (IC50) was 5.49 µM.
In the case of `NS(=O)(=O)c1ccc(N/N=C/c2ccc(O)c(O)c2O)c([N+](=O)[O-])c1`, the IC50 is 1.24 µM.
For the compound `O=C(COC(=O)c1c2c(nc3ccccc13)/C(=C\c1ccco1)CC2)NC1CCCC1`, the IC50 is 6.44 µM.
Regarding `Cn1c(N)c(C(=O)COC(=O)c2cc(-c3ccco3)nc3ccccc23)c(=O)n(C)c1=O`, the IC50 was 2.57 µM.
The entry for `Brc1ccc(-c2nn3c(-c4ccco4)nnc3s2)o1` is “inactive”.
Then `O=C1NC(=Nc2ccccc2)S/C1=C\C=C\c1ccco1`, with 4.38 µM; and `CN(CCC#N)C(=O)COC(=O)c1c2c(nc3ccccc13)/C(=C\c1ccco1)CC2`, with 2.56 µM; and `COC(=O)c1cc(O)cc(OC)c1Oc1cc(C)cc(O)c1C(=O)O`, with 2.59 µM.
`COc1cc(/C=C(\C#N)C(=O)c2ccc(O)c(O)c2)cc(I)c1O`: the IC50 is 0.752 µM.
`O=[N+]([O-])c1ccccc1NC(=S)N/N=C/c1ccc(O)c(O)c1`: the half-maximal inhibitory concentration (IC50) is 2.51 µM.
Then `C=C(C)C(=O)Nc1cccc(C2=NOC3(C2)C[C@H](C(N)=O)N(C(=O)/C=C/C)C3)c1` (some centres undefined), with 4.72 µM.
As to `O=C(Cc1cnn(-c2ccccc2)c1)c1ccc(O)c(O)c1O`, the IC50 is > 36.5 µM (inactive).
Then `O=c1cc(-c2ccc(O)c(O)c2)oc2c(C3O[C@H](CO)[C@@H](O)[C@H](O)[C@H]3O)c(O)cc(O)c12` (some centres undefined), with 1.26 µM.
Regarding `O=C(O)c1cccc(-n2cccc2/C=C2/NC(=O)N(c3ccc(Cl)cc3)C2=O)c1`, the IC50 was 0.794 µM.
Consider `Nc1nc(-c2ccco2)c(-c2ccco2)s1`, for which the IC50 was > 36.5 µM (inactive).
Then `COc1ccc(N=C2NC(=O)/C(=C\C=C\c3ccco3)S2)cc1`, with 8.07 µM; and `O=c1c(-c2c(O)cc(O)c3c(=O)cc(-c4ccc(O)cc4)oc23)c(-c2ccc(O)cc2)oc2cc(O)cc(O)c12`, with 4.23 µM.
With `O=S(=O)(c1cc(O)ccc1O)c1cccc2c(S(=O)(=O)c3cc(O)ccc3O)cccc12`, the IC50 entry was “inactive”.
As to `Cc1c(O)cc2c(c1O)C(=O)CC(c1ccc(O)cc1)O2` (centres undefined), the IC50 is 9.39 µM.
For the compound `O=C(CCN1CCN(c2ccccc2)CC1)N/N=C/c1ccc(O)c(O)c1O`, the IC50 was 1.02 µM.
With `O=S(=O)(O)c1cc(O)c(N=Nc2ccc(O)cc2O)c2ccccc12`, the IC50 entry is “inactive”.
As for `O=C1C=C(Nc2ccccc2O)c2ccccc2C1=O`, the IC50 was 7.39 µM.
For `NNc1cccc(C=Cc2ccccc2)cc1=O`, the IC50 is > 36.6 µM (inactive).
In the case of `CCN=c1scc(C)n1/N=C/c1ccc(O)c(O)c1O`, the half-inhibitory concentration (IC50) was 5.61 µM.
In the case of `O=C(O)c1cc(O)c2c(c1)[C@H]([C@H]1c3cc(C(=O)O)cc(O)c3C(=O)c3c(O[C@@H]4O[C@H](CO)[C@@H](O)[C@H](O)[C@H]4O)cccc31)c1cccc(OC3O[C@H](CO)[C@@H](O)[C@H](O)[C@H]3O)c1C2=O` (some centres undefined), the IC50 is 1.05 µM.
In the case of `CC(C)(CS(=O)(=O)[O-])NC(=O)CC[N+](C)(C)CCO`, the IC50 was 3.06 µM.
Turning to `O=Cc1ccc2oc3nc4n(c(=O)c3c(=O)c2c1)CCCS4`, the IC50 was 1.81 µM.
The figure for `O=c1cc2c(=O)oc3cc(O)c(O)oc3c2c(O)c1O` is 0.244 µM.
The figure for `O=C(CSc1nc2ccccc2o1)N/N=C/c1ccc(O)c(O)c1` is 1.93 µM; for `COc1ccc(/C=C/C(=O)N2CCCc3ccccc32)cc1` it is > 36.6 µM (inactive).
The figure for `CC1=NN(c2cccc(C(=O)O)c2)C(=O)/C1=C\C=C\c1ccco1` is 0.734 µM.
For `O=C1CC(=O)N(Cc2ccco2)C(=O)N1`, the IC50 is 0.691 µM.
With `O=C(O)CC(CCc1ccccc1)OC1OC(CO)C(O)C(O)C1O` (centres undefined), the IC50 was 0.62 µM.
For `O=C(N/N=C/c1ccc(O)cc1O)C(=O)N/N=C/c1ccc(O)cc1O`, the IC50 is 0.177 µM.
The figure for `O=C(N/N=C\C=C\c1ccc([N+](=O)[O-])o1)c1cccs1` is > 36.5 µM (inactive); for `O=C(NN1C(=O)/C(=C/C=C/c2ccco2)SC1=S)c1ccccc1O` it is 1.85 µM.
Consider `C=CC1=C(C(=O)O)N2C(=O)[C@@H](NC(=O)/C(=N/OCC(=O)O)c3csc(N)n3)[C@H]2SC1`, for which the IC50 was 0.287 µM.
As for `O=C1C=C(O)c2c(O)cc(O)c(O)c2C1=O`, the IC50 is 0.742 µM.
For `COc1cc(/C=C/C=C2/CC/C(=C/C=C/c3ccc(O)c(OC)c3)C2=O)ccc1O`, the IC50 is 4.93 µM.
`CCN(CC)c1ccc(N=C2C=CC(=O)C=C2NC(C)=O)cc1`: the IC50 was > 36.6 µM (inactive).
Regarding `CCCCCn1c(NC(=O)c2ccco2)c(S(=O)(=O)c2ccc(C)cc2)c2nc3ccccc3nc21`, the IC50 entry is “inactive”.
In the case of `O=S(=O)(O)c1cc(Cl)cc(N=Nc2ccc(O)cc2O)c1O`, the IC50 was 9.94 µM.
With `C=C1c2cccc(O)c2C(=O)C2C(=O)[C@]3(O)C(=O)C(C(N)=O)C(=O)[C@@H](N(C)C)[C@@H]3[C@@H](O)[C@H]12` (some centres undefined), the IC50 was 4.76 µM.
The figure for `Cc1c(CC(=O)N2CCN(C(=O)C3COc4ccccc4O3)CC2)c(=O)oc2c(O)c(O)ccc12` (centres undefined) is 0.408 µM; for `Oc1ccc(C=Nc2ccc(N3CCOCC3)cc2)c(O)c1` it is “inactive”; for `O=C(O)c1ccc(-n2cccc2/C=C2/NC(=O)N(c3cccc(Cl)c3)C2=O)cc1` it is 4.25 µM.
In the case of `COc1ccc(/C=C2\C(=O)NC(=O)c3ccccc32)cc1OC`, the IC50 is 3.94 µM.
As for `c1coc(-c2ccc3nncn3c2)c1`, the IC50 was 1.18 µM.
Turning to `COc1cccc(-n2c(SCc3cc(=O)oc4cc(O)c(O)cc34)nc3ccccc3c2=O)c1`, the IC50 is 3.81 µM.
The figure for `N#C/C(=C\c1cc(O)c(O)c(O)c1)C(N)=O` is 9.6 µM; for `CCn1c(C)nc2cc(C(=O)N/N=C/c3ccc(O)c(O)c3O)ccc21` it is 0.429 µM.
Consider `Oc1ccc(-c2cn3c(n2)SCC3)cc1O`, for which the IC50 is 1.48 µM.
In the case of `C=C(C)C(=O)Oc1ccc(N=Nc2ccc(C)cc2)ccc1=O`, the IC50 was 3.48 µM.
For `O=c1c(O)c(-c2ccc(O)c(O)c2)oc2cc(O)ccc12`, the IC50 was 0.378 µM.
In the case of `Cc1cccc(N=C2NC(=O)/C(=C/C=C/c3ccco3)S2)c1C`, the IC50 is 2.99 µM.
Consider `Cc1ccc(N=C2NC(=O)/C(=C/C=C/c3ccco3)S2)cc1`, for which the IC50 is 9.14 µM.
In the case of `Oc1ccc(C[C@H]2NCCc3cc(O)c(O)cc32)cc1O`, the IC50 was 3.23 µM.
Regarding `S=C(Nc1ccc(N2CCOCC2)cc1)Nc1ccc2nc(-c3ccco3)c(-c3ccco3)nc2c1`, the IC50 is > 36.5 µM (inactive).
`COC(=O)C1CCN(C(=O)c2cc(-c3ccco3)nc3ccccc23)CC1`: the IC50 is 5.92 µM.
Take `O=C(CCN1C(=O)/C(=C/c2ccco2)SC1=S)Nc1ccc(C(=O)O)c(O)c1`: the IC50 result is “inactive”.
Then `O=C(O)c1ccc(-n2cccc2/C=C2/NC(=O)N(c3ccccc3)C2=O)cc1`, with 2.85 µM; and `O=C(O)c1ccc2nc(-c3ccco3)c(-c3ccco3)nc2c1`, with 1.92 µM; and `COc1ccc(NC(=O)CSc2sc3c(O)cc(=O)[nH]c3c2C#N)c(OC)c1`, with “inactive”.
With `O=C1C=C(O)c2[nH]c(=O)ccc2C1=O`, the IC50 was 3.8 µM.
Take `CC(=O)c1ccc(NC(=O)CSc2nnc(-c3ccco3)c(-c3ccco3)n2)cc1`: the half-maximal inhibitory concentration (IC50) was 6.38 µM.
On to `N#Cc1c(SCC(=O)Nc2nccs2)sc2c(O)cc(=O)[nH]c12`, for which the IC50 is 8.63 µM.
`Cc1ccc(NC2=CC(=O)C(=O)c3ccccc32)cc1`: the IC50 is 8.86 µM.
Turning to `Oc1ccc(NCc2ccccc2OCc2ccccc2)cc1`, the IC50 was > 36.5 µM (inactive).

Broadly, the IC50 is the concentration needed to halve the response being measured.

The record behind these values is PubChem BioAssay AID1053172 (The Scripps Research Institute Molecular Screening Center, 2014).
